How the values were obtained:
HT-1080 = assay: Modulatory profiling: Alamar Blue viability, lethal compound cotreated with death modulator (EC50, AUC); format: cell-based; design: AUC, modulator HT.3MA / AUC, modulator HT.ALLN / AUC HT.ATA / AUC HT.ActD / AUC HT.BHA / AUC HT.BHT / AUC HT.BocD / AUC HT.CHX / AUC HT.Co2+ / AUC HT.DPQ / AUC HT.EGTA / AUC HT.Lmim / AUC HT.NAD+ / AUC HT.Nec-1 / AUC HT.SP600125 / AUC HT.TLCK / AUC HT.U0126: unit not given beside the values
BJeLR = assay: as above; format: cell-based, human; design: AUC, modulator BJ.Gd3+ / AUC, modulator BJ.LNAME / AUC, modulator BJ.Lmin / AUC, modulator BJ.3MA / AUC, modulator BJ.ALLN / AUC, modulator BJ.Boc D / AUC, modulator BJ.CHX / AUC, modulator BJ.Co2+ / AUC, modulator BJ.Nec-1 / AUC, modulator BJ.Pepstatin / AUC, modulator BJ.TLCK / AUC, modulator BJ.atoc / AUC, modulator BJ.trolox / AUC, modulator BJ.zVAD: unit not given beside the values; conditions: BJeLR cells, modulatory profile value (AUC)
[1] = Cobalt (II) binding assay in vitro (absorbance spectrum); conditions: absorbance 300-700 nm
Procedure: For each cluster I compound (CIL13, −52, and −64), prepared two-fold dilution series with DMSO. We added 30 μL per well of either water or 10 μM cobalt (II) chloride solution to each well of a 384-well plate. Dilution series of each compound in DMSO were added by 10 μL per well. After solutions had been mixed by shaking of the plate using a Victor 3 plate reader (PerkinElmer), absorbance was scanned between 300 and 700 nm for each compound. Finally the following Absorbance value for each compound was plotted (see FIG. 9B):
[formula] where Abs is the absorbance at each wavelength. Search of Commercially Available Structural Analogs of CIL41/70.

binding to cobalt (II) in vitro [1]: bound to cobalt (II) in vitro
SMILES: C(=N\Nc1nc2ccccc2s1)/c1ccccn1 [CIL52]
AUC HT.ATA (HT-1080; HT-1080, modulator ATA): 0.03417
AUC HT.ActD (HT-1080; HT-1080, modulator ActD): 0.07379
AUC HT.BHA (HT-1080; HT-1080, modulator BHA): −0.01302
AUC HT.BHT (HT-1080; HT-1080, modulator BHT): −0.06719
AUC HT.BocD (HT-1080; HT-1080, modulator BocD): 0.008582
AUC HT.CHX (HT-1080; HT-1080, modulator CHX): 0.1474
AUC HT.Co2+ (HT-1080; HT-1080, modulator Co2+): 0.4155
AUC HT.CspA (HT-1080; HT-1080, modulator CspA): 0.05641
AUC HT.DPQ (HT-1080; HT-1080, modulator DPQ): −0.0133
AUC HT.EGTA (HT-1080; HT-1080, modulator EGTA): 0.09078
AUC HT.Gd3+ (HT-1080; HT-1080, modulator Gd3+): −0.006922
AUC HT.LNAME (HT-1080; HT-1080, modulator LNAME): −0.009412
AUC HT.Lmim (HT-1080; HT-1080, modulator Lmim): 0.02654
AUC HT.NAD+ (HT-1080; HT-1080, modulator NAD+): 0.01945
AUC HT.NMMA (HT-1080; HT-1080, modulator NMMA): −0.01196
HT.atoc (AUC) (HT-1080; HT-1080, modulator atoc): 0.07146
HT.bCarotene (AUC) (HT-1080; HT-1080, modulator bCarotene): 0.06784
HT.deferox (AUC) (HT-1080; HT-1080, modulator deferox): 0.2325
HT.digoxin (AUC) (HT-1080; HT-1080, modulator digoxin): −0.005506
HT.trolox (AUC) (HT-1080; HT-1080, modulator trolox): −0.03942
HT.zVAD (AUC) (HT-1080; HT-1080, modulator zVAD): 0.02339
effect of cobalt (II) on lethality (HT-1080; modulatory profiles, CoCl2 supplementation): inhibited by cobalt (II)
AUC, modulator BJ.3MA (BJeLR; lethal compound cotreated with modulator 3MA): 0.0119
AUC, modulator BJ.ALLN (BJeLR; lethal compound cotreated with modulator ALLN): 0.01092
AUC, modulator BJ.Boc D (BJeLR; lethal compound cotreated with modulator Boc D): 0.0184
AUC, modulator BJ.CHX (BJeLR; lethal compound cotreated with modulator CHX): 0.03724
AUC, modulator BJ.Co2+ (BJeLR; lethal compound cotreated with modulator Co2+): 0.7978
AUC, modulator BJ.DPQ (BJeLR; lethal compound cotreated with modulator DPQ): 0.03648
AUC, modulator BJ.Gd3+ (BJeLR; lethal compound cotreated with modulator Gd3+): 0.08327
AUC, modulator BJ.LNAME (BJeLR; lethal compound cotreated with modulator LNAME): −0.01578
AUC, modulator BJ.Lmin/NAD+ (BJeLR; lethal compound cotreated with modulator Lmin/NAD+): 0.08265
AUC, modulator BJ.Lmin (BJeLR; lethal compound cotreated with modulator Lmin): 0.007783
AUC, modulator BJ.NAD+ (BJeLR; lethal compound cotreated with modulator NAD+): 0.09321
AUC, modulator BJ.NMMA (BJeLR; lethal compound cotreated with modulator NMMA): −0.006118
AUC, modulator BJ.Nec-1 (BJeLR; lethal compound cotreated with modulator Nec-1): 0.03888
AUC, modulator BJ.Pepstatin (BJeLR; lethal compound cotreated with modulator Pepstatin): 0.02196
AUC, modulator BJ.TLCK (BJeLR; lethal compound cotreated with modulator TLCK): 0.284
